Read-outs that look alike come from different tables or passages of the source. Bounds are passed on as bounds.

In one test the target is T1, mTORC1 (Homo sapiens, UniProt P42345+P62942).
T1 construct: endogenous in cells; host or cells: PC3 cells (human prostate adenocarcinoma)
Put plainly: Inhibition assay for mTORC1: phosphorylation of pS6K at Thr389, AlphaLISA SureFire in PC3 cells. In kind it is cell-based. The method, then: The IC50s of the inhibition of mTORC1 and mTORC2 were determined in vitro by determining the phosphorylation of pS6K at position Thr389 (mTORC1 inhibition) and pAkt at Ser473 (mTORC2 inhibition). In vitro studies were performed with AiphaLISA® technology using PC3 cells (Prostate Adenocarcinoma; Human (Homo sapiens)). The cells were seeded in 96 well plates and were treated for 24 hours with the different compounds. […] All analysis were performed using GraphPad Prism 7.0 (GraphPad Software, San Diego, USA).
Tables 5-7 include PIC50 values for mTORC1 of selected compounds; with compounds having an PIC50 for mTORC1 of >9.5 as A, 8.5 to 9.5 as B, and less than 8.5 as C.
In general terms: Bead proximity is the source of the signal in Alpha formats.

For another test, the target named is T2, mTORC2 (Homo sapiens, UniProt P42345+P62942).
T2 construct: endogenous in cells; host or cells: PC3 cells (human prostate adenocarcinoma)
Kind of test: Inhibition assay for mTORC2: phosphorylation of pAkt at Ser473, AlphaLISA SureFire in PC3 cells. The test is classed as cell-based. The settings on record: 24 hours treatment, analogs substituted at C40 and C16 (C16 diastereomer mixtures not isolated). Here is the method:
The IC50s of the inhibition of mTORC1 and mTORC2 were determined in vitro by determining the phosphorylation of pS6K at position Thr389 (mTORC1 inhibition) and pAkt at Ser473 (mTORC2 inhibition). In vitro studies were performed with AiphaLISA® technology using PC3 cells (Prostate Adenocarcinoma; Human (Homo sapiens)). The cells were seeded in 96 well plates and were treated for 24 hours with the different compounds. […] All analysis were performed using GraphPad Prism 7.0 (GraphPad Software, San Diego, USA). […]

The mark [1] stands for this setting: PC3 cells, 24 hours treatment, pS6K Thr389, analogs substituted at C40 and C16 (C16 diastereomer mixtures not isolated), read-out: pIC50 mTORC1 (converted).
Where [2] appears, read: PC3 cells, read-out: pIC50 mTORC2 (converted).

Turning to `CO[C@@H]1C[C@H](C[C@@H](C)[C@@H]2CC(=O)[C@H](C)/C=C(\C)[C@@H](O)[C@@H](OC)C(=O)[C@H](C)C[C@H](C)/C=C/C=C/C=C(\C)C(OCCO)C[C@@H]3CC[C@@H](C)[C@@](O)(O3)C(=O)C(=O)N3CCCCC3C(=O)O2)CC[C@H]1OCCCO` (some centres unmarked) [Compound 10], the values for the IC50 on mTORC1 (setting [1]) and at mTORC2 (setting [2]) were less than 0.000316 µM and greater than 10 µM, respectively.
The like results for `COCCOC1C[C@@H]2CC[C@@H](C)[C@@](O)(O2)C(=O)C(=O)N2CCCCC2C(=O)O[C@H]([C@H](C)C[C@@H]2CC[C@@H](OCCCN3CCOCC3)[C@H](OC)C2)CC(=O)[C@H](C)/C=C(\C)[C@@H](O)[C@@H](OC)C(=O)[C@H](C)C[C@H](C)/C=C/C=C/C=C/1C` (some centres unmarked) [Compound 48] were, in that order, less than 0.000316 µM and 1 to 10 µM.
Turning to `COCCOCCOC1C[C@@H]2CC[C@@H](C)[C@@](O)(O2)C(=O)C(=O)N2CCCC[C@H]2C(=O)O[C@H]([C@H](C)C[C@@H]2CC[C@@H](OCCCO)[C@H](OC)C2)CC(=O)[C@H](C)/C=C(\C)[C@@H](O)[C@@H](OC)C(=O)[C@H](C)C[C@H](C)/C=C/C=C/C=C/1C` (mixture of isomers) [Compound 17], the IC50 was less than 0.000316 µM at mTORC1 and greater than 10 µM on mTORC2 (pIC50 mTORC2, PC3 cells).
Regarding `CO[C@@H]1C[C@H](C[C@@H](C)[C@@H]2CC(=O)[C@H](C)/C=C(\C)[C@@H](O)[C@@H](OC)C(=O)[C@H](C)C[C@H](C)/C=C/C=C/C=C(\C)C(OC(C)C)C[C@@H]3CC[C@@H](C)[C@@](O)(O3)C(=O)C(=O)N3CCCCC3C(=O)O2)CC[C@H]1OCCCc1ccccc1` (some centres unmarked) [Compound 96], the IC50 at mTORC1 (setting [1]) is greater than 0.00316 µM; on mTORC2 (setting [2]), greater than 10 µM.
Turning to `CO[C@@H]1C[C@H](C[C@@H](C)[C@@H]2CC(=O)[C@H](C)/C=C(\C)[C@@H](O)[C@@H](OC)C(=O)[C@H](C)C[C@H](C)/C=C/C=C/C=C(\C)C(OC3COC3)C[C@@H]3CC[C@@H](C)[C@@](O)(O3)C(=O)C(=O)N3CCCCC3C(=O)O2)CC[C@H]1OC(=O)NCCN1CCOCC1` (some centres unmarked) [Compound 71], the values for the IC50 on mTORC1 (setting [1]) and at mTORC2 (setting [2]) were 0.000316 to 0.00316 µM and greater than 10 µM, respectively.
Take `CO[C@@H]1C[C@H](C[C@@H](C)[C@@H]2CC(=O)[C@H](C)/C=C(\C)[C@@H](O)[C@@H](OC)C(=O)[C@H](C)C[C@H](C)/C=C/C=C/C=C(\C)C(OCCO)C[C@@H]3CC[C@@H](C)[C@@](O)(O3)C(=O)C(=O)N3CCCCC3C(=O)O2)CC[C@H]1OCCO` (some centres unmarked) [Compound 9]: the IC50 on mTORC1 (setting [1]) was less than 0.000316 µM; at mTORC2 (setting [2]) it was greater than 10 µM.
Regarding `CO[C@@H]1C[C@H](C[C@@H](C)[C@@H]2CC(=O)[C@H](C)/C=C(\C)[C@@H](O)[C@@H](OC)C(=O)[C@H](C)C[C@H](C)/C=C/C=C/C=C(\C)C(OC[C@@H](O)c3ccccc3)C[C@@H]3CC[C@@H](C)[C@@](O)(O3)C(=O)C(=O)N3CCCCC3C(=O)O2)CC[C@H]1OCCCO` (some centres unmarked) [Compound 90], the IC50 at mTORC1 (setting [1]) was less than 0.000316 µM; at mTORC2 (setting [2]), 1 to 10 µM.
`CO[C@@H]1C[C@H](C[C@@H](C)[C@@H]2CC(=O)[C@H](C)/C=C(\C)[C@@H](O)[C@@H](OC)C(=O)[C@H](C)C[C@H](C)/C=C/C=C/C=C(\C)C(OCCOCCO)C[C@@H]3CC[C@@H](C)[C@@](O)(O3)C(=O)C(=O)N3CCCCC3C(=O)O2)CC[C@H]1OCCCO` (some centres unmarked) [Compound 53]: the IC50 was 0.000316 to 0.00316 µM at mTORC1 (setting [1]) and greater than 10 µM at mTORC2 (setting [2]).
Take `CO[C@@H]1C[C@H](C[C@@H](C)[C@@H]2CC(=O)[C@H](C)/C=C(\C)[C@@H](O)[C@@H](OC)C(=O)[C@H](C)C[C@H](C)/C=C/C=C/C=C(\C)C(OCCc3ccccc3)C[C@@H]3CC[C@@H](C)[C@@](O)(O3)C(=O)C(=O)N3CCCCC3C(=O)O2)CC[C@H]1OC(=O)NCCO` (stereo partly drawn) [Compound 111, [(1R,2R,4S)-4-[(2R)-2-[(1R,9S,12S,15R,16E,18R,19R,21R,23S,24E,26E,28E,32S,35R)-1,18-dihydroxy-19-methoxy-15,17,21,23,29,35-hexamethyl-2,3,10,14,20-pentaoxo-30-(2-phenylethoxy)-11,36-dioxa-4-azatricyclo[30.3.1.0^4,9]hexatriaconta-16,24,26,28-tetraen-12-yl]propyl]-2-methoxy-cyclohexyl] N-(2-hydroxyethyl)carbamate]: the IC50 on mTORC1 (setting [1]) was less than 0.000316 µM; at mTORC2 (setting [2]) it was less than 1 µM.
As for `COCCOC1C[C@@H]2CC[C@@H](C)[C@@](O)(O2)C(=O)C(=O)N2CCCCC2C(=O)O[C@H]([C@H](C)C[C@@H]2CC[C@@H](OC[C@@H](O)CO)[C@H](OC)C2)CC(=O)[C@H](C)/C=C(\C)[C@@H](O)[C@@H](OC)C(=O)[C@H](C)C[C@H](C)/C=C/C=C/C=C/1C` (some centres unmarked) [Compound 58], the IC50 at mTORC1 (setting [1]) is less than 0.000316 µM; at mTORC2 (setting [2]), 1 to 10 µM.
In the case of `CO[C@@H]1C[C@H](C[C@@H](C)[C@@H]2CC(=O)[C@H](C)/C=C(\C)[C@@H](O)[C@@H](OC)C(=O)[C@H](C)C[C@H](C)/C=C/C=C/C=C(\C)C(OCCO)C[C@@H]3CC[C@@H](C)[C@@](O)(O3)C(=O)C(=O)N3CCCCC3C(=O)O2)CC[C@H]1OCCCN1CCCCC1` (stereo partly drawn) [Compound 87, (1R,9S,12S,15R,16E,18R,19R,21R,23S,24E,26E,28E,32S,35R)-1,18-dihydroxy-30-(2-hydroxyethoxy)-19-methoxy-12-[(1R)-2-[(1S,3R,4R)-3-methoxy-4-[3-(1-piperidyl)propoxy]cyclohexyl]-1-methyl-ethyl]-15,17,21,23,29,35-hexamethyl-11,36-dioxa-4-azatricyclo[30.3.1.0^4,9]hexatriaconta-16,24,26,28-tetraene-2,3,10,14,20-pentone], the figures for the IC50 on mTORC1 (setting [1]) and at mTORC2 (setting [2]) were 0.000316 to 0.00316 µM and 1 to 10 µM, respectively.
For `COCCOC1C[C@@H]2CC[C@@H](C)[C@@](O)(O2)C(=O)C(=O)N2CCCCC2C(=O)O[C@H]([C@H](C)C[C@@H]2CC[C@@H](OCCOC)[C@H](OC)C2)CC(=O)[C@H](C)/C=C(\C)[C@@H](O)[C@@H](OC)C(=O)[C@H](C)C[C@H](C)/C=C/C=C/C=C/1C` (some centres unmarked) [Compound 29] the same measures were less than 0.000316 µM and greater than 10 µM.
As for `COCCOC1C[C@@H]2CC[C@@H](C)[C@@](O)(O2)C(=O)C(=O)N2CCCCC2C(=O)O[C@H]([C@H](C)C[C@@H]2CC[C@@H](OCCCN3CCN(C)CC3)[C@H](OC)C2)CC(=O)[C@H](C)/C=C(\C)[C@@H](O)[C@@H](OC)C(=O)[C@H](C)C[C@H](C)/C=C/C=C/C=C/1C` (some centres unmarked) [Compound 32], the IC50 was less than 0.000316 µM at mTORC1 (setting [1]) and 1 to 10 µM on mTORC2 (setting [2]).
For `CO[C@@H]1C[C@H](C[C@@H](C)[C@@H]2CC(=O)[C@H](C)/C=C(\C)[C@@H](O)[C@@H](OC)C(=O)[C@H](C)C[C@H](C)/C=C/C=C/C=C(\C)C(OCCO)C[C@@H]3CC[C@@H](C)[C@@](O)(O3)C(=O)C(=O)N3CCCCC3C(=O)O2)CC[C@H]1OC(=O)NCCO` (some centres unmarked) [Compound 64], the IC50 is 0.000316 to 0.00316 µM at mTORC1 (setting [1]) and greater than 10 µM at mTORC2 (setting [2]).
As to `COCCOC1C[C@@H]2CC[C@@H](C)[C@@](O)(O2)C(=O)C(=O)N2CCCCC2C(=O)O[C@H]([C@H](C)C[C@@H]2CC[C@@H](OCCCN3CCO[C@H](C)C3)[C@H](OC)C2)CC(=O)[C@H](C)/C=C(\C)[C@@H](O)[C@@H](OC)C(=O)[C@H](C)C[C@H](C)/C=C/C=C/C=C/1C` (some centres unmarked) [Compound 36], the IC50 on mTORC1 (setting [1]) is less than 0.000316 µM; on mTORC2 (setting [2]), 1 to 10 µM.
As to `CO[C@@H]1C[C@H](C[C@@H](C)[C@@H]2CC(=O)[C@H](C)/C=C(\C)[C@@H](O)[C@@H](OC)C(=O)[C@H](C)C[C@H](C)/C=C/C=C/C=C(\C)C(OCCc3ccccc3)C[C@@H]3CC[C@@H](C)[C@@](O)(O3)C(=O)C(=O)N3CCCCC3C(=O)O2)CC[C@H]1OCCO` (some centres unmarked) [Compound 99], the IC50 at mTORC1 (setting [1]) was less than 0.000316 µM; on mTORC2 (setting [2]), 1 to 10 µM.
For the molecule `CO[C@@H]1C[C@H](C[C@@H](C)[C@@H]2CC(=O)[C@H](C)/C=C(\C)[C@@H](O)[C@@H](OC)C(=O)[C@H](C)C[C@H](C)/C=C/C=C/C=C(\C)C(OCCO)C[C@@H]3CC[C@@H](C)[C@@](O)(O3)C(=O)C(=O)N3CCCCC3C(=O)O2)CC[C@H]1OC(=O)NCCN1CCCCC1` (some centres unmarked) [Compound 72], the IC50 is 0.000316 to 0.00316 µM at mTORC1 (setting [1]) and greater than 10 µM at mTORC2 (setting [2]).
On to `COCCOC1C[C@@H]2CC[C@@H](C)[C@@](O)(O2)C(=O)C(=O)N2CCCCC2C(=O)O[C@H]([C@H](C)C[C@@H]2CC[C@@H](OCCCN3CCCCC3)[C@H](OC)C2)CC(=O)[C@H](C)/C=C(\C)[C@@H](O)[C@@H](OC)C(=O)[C@H](C)C[C@H](C)/C=C/C=C/C=C/1C` (some centres unmarked) [Compound 35], for which the IC50 at mTORC1 (setting [1]) is less than 0.000316 µM; on mTORC2 (setting [2]), 1 to 10 µM.
Consider `CO[C@@H]1C[C@H](C[C@@H](C)[C@@H]2CC(=O)[C@H](C)/C=C(\C)[C@@H](O)[C@@H](OC)C(=O)[C@H](C)C[C@H](C)/C=C/C=C/C=C(\C)C(OCCO)C[C@@H]3CC[C@@H](C)[C@@](O)(O3)C(=O)C(=O)N3CCCCC3C(=O)O2)CC[C@H]1OCCCN1CCOCC1` (stereo partly drawn) [Compound 55, (1R,9S,12SR,15R,16E,18R,19R,21R,23S,24E,26E,28E,32S,35R)-1,18-dihydroxy-30-(2-hydroxyethoxy)-19-methoxy-12-[(1R)-2-[(1S,3R,4R)-3-methoxy-4-(3-morpholinopropoxy)cyclohexyl]-1-methyl-ethyl]-15,17,21,23,29,35-hexamethyl-11,36-dioxa-4-azatricyclo[30.3.1.0^4,9]hexatriaconta-16,24,26,28-tetraene-2,3,10,14,20-pentone], for which the IC50 was less than 0.000316 µM on mTORC1 (setting [1]) and 1 to 10 µM at mTORC2 (setting [2]).

The values above are taken from patent publication US12565505B2, “mTORC modulators and uses thereof” (Aeovian Pharmaceuticals, Inc., priority 2019, dated 2026).
